# Measurements published in US11584763B2, “Chromenopyridine derivatives as phosphatidylinositol phosphate kinase inhibitors” (HIBERCELL, INC., priority 2017, dated 2023).
# Tests used:
# Type in all cases: biochemical
# PIP4K2B = biological target: T1, PIP4K2B (Homo sapiens, UniProt P78356); test: Trans-FI P kinase assay PIP4K2B (PIP4KtypeIIB inhibition assay); conditions: compounds listed under IC50 bin headings; 100 uM GTP; read-out: Trans-FI P kinase assays: PIP4K2B IC50
# T1 construct: made in house; host or cells: E. coli
# T1 sequence (P78356 1-416): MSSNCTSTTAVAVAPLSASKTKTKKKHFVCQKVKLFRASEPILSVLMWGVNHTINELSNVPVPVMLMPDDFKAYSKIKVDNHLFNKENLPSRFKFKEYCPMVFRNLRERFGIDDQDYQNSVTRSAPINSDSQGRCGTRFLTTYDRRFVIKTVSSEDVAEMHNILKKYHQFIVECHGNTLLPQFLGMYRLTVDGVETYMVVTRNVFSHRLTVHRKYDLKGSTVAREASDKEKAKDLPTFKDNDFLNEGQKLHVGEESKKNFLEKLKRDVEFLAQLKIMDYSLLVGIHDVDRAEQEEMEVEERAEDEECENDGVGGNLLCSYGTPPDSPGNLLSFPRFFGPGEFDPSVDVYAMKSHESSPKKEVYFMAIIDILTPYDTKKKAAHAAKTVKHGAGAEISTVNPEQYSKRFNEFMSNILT
# Method in brief: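 GST-tagged human PIP4K2B (5 nM, E. coli-expressed) preincubated 1 h at 27 C with compound (top 4.8 uM, 5% DMSO), then reacted 2 h with 100 uM GTP and 80 uM PI5P/DOPE vesicles in HEPES pH 7.3, MgCl2, Triton X-100. GDP detected by Transcreener FI fluorescence via calibration curve; IC50 from % activity vs log[inhibitor].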
# PIP4K 2A [1] = biological target: T2, PIP4K 2A (Homo sapiens, UniProt P48426); test: ADP-glo kinase assay PIP4K 2A; parameters: 4 nM PIP4K2A (full length protein, SignalChem); purchased SignalChem; conditions: compounds listed under IC50 bin headings
# T2 sequence (P48426 1-406): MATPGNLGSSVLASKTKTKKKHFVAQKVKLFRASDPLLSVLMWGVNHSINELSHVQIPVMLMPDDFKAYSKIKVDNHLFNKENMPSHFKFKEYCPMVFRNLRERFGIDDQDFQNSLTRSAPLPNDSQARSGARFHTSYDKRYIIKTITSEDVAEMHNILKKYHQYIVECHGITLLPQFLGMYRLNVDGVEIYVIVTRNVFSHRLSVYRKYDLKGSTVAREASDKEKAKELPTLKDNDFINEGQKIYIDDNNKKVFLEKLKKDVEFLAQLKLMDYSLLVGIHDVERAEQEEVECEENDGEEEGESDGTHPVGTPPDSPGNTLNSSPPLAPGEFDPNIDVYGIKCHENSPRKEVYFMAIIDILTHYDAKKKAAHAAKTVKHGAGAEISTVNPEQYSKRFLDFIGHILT
# Method in brief: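 Full-length PIP4K2A was pre-incubated 15 min at RT with compound in 20 mM MOPS pH 7.2, 25 mM MgCl2, 0.005% Tween 20. The enzyme mix held 4 nM kinase and 100 μM PI(5)P diC8, and ATP was added from a 60 μM solution. After 1 h at RT, ADP-Glo luminescence gave % inhibition versus DMSO, fitted to IC50 over 10 threefold dilutions.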
# PIP4K 2A [2] = biological target: T2, PIP4K 2A; test: Kinase Assay PIP4K2 A (PIP4KtypeIIA inhibition assay); parameters: made in house; host or cells: E. coli; conditions: compounds listed under IC50 bin headings
# Method in brief: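 GST-tagged enzyme from E. coli at 0.5 nM final was preincubated with compound for 1 h at 27 C, then reacted with 10 uM ATP, 80 uM PI5P and DOPE carrier in 50 mM HEPES pH 7.3, 5% DMSO. After 1 h, ADP was measured by ADP-Glo luminescence against a calibration curve. IC50 was fitted from % residual activity.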
SMILES,IC50 (PIP4K2B) [µM],IC50 (PIP4K 2A [1]) [µM],IC50 (PIP4K 2A [2]) [µM]
"CC1Oc2cc(N3CCCC3=O)ccc2-c2cnc(Nc3cncnc3)cc21 (stereo not drawn) [Example 80, 1-(5-methyl-3-(pyrimidin-5-ylamino)-5H-chromeno[4,3-c]pyridin-8-yl)pyrrolidin-2-one]",0.1 to 1,0.01 to 0.1,0.01 to 0.1
"CC1Oc2cc(C(=O)N(C)C)ccc2-c2cnc(Nc3cncc(N4CCCC4=O)c3)cc21 (stereo not drawn) [Example 32, N,N,5-trimethyl-3-((5-(2-oxopyrrolidin-1-yl)pyridin-3-yl)amino)-5H-chromeno[4,3-c]pyridine-8-carboxamide]",0.01 to 0.1,0.001 to 0.01,≤ 0.001
"CC1Oc2cc(N3CCCC3=O)ccc2-c2cnc(Nc3cccnc3)cc21 (stereo not drawn) [Example 38, 1-(5-methyl-3-(pyridin-3-ylamino)-5H-chromeno[4,3-c]pyridin-8-yl)pyrrolidin-2-one]",0.1 to 1,0.001 to 0.01,0.001 to 0.01
"CC1(C)Oc2cc(N3CCCC3=O)c(F)cc2-c2cnc(Nc3cnc4c(c3)OCCO4)cc21 [Example 167, 1-(3-((2,3-dihydro-[1,4]dioxino[2,3-b]pyridin-7-yl)amino)-9-fluoro-5,5-dimethyl-5H-chromeno[4,3-c]pyridin-8-yl)pyrrolidin-2-one]",0.01 to 0.1,≤ 0.001,≤ 0.001

# More lines, now with the values ahead:
IC50 (PIP4K2B) [µM],IC50 (PIP4K 2A [1]) [µM],IC50 (PIP4K 2A [2]) [µM],SMILES
0.001 to 0.01,≤ 0.001,≤ 0.001,"CC(O)C(=O)N1CCOc2ncc(Nc3cc4c(cn3)-c3ccc(N5CCCC5=O)cc3OC4C)cc21 (stereo not drawn) [Example 60, 1-(3-((1-(2-hydroxypropanoyl)-2,3-dihydro-1H-pyrido[2,3-b][1,4]oxazin-7-yl)amino)-5-methyl-5H-chromeno[4,3-c]pyridin-8-yl)pyrrolidin-2-one]"
0.001 to 0.01,≤ 0.001,≤ 0.001,"CC1Oc2cc(N3CCCC3=O)ccc2-c2cnc(Nc3cnc4c(c3)N(C(=O)C(C)(C)O)CCO4)cc21 (stereo not drawn) [Example 59, 1-(3-((1-(2-hydroxy-2-methylpropanoyl)-2,3-dihydro-1H-pyrido[2,3-b][1,4]oxazin-7-yl)amino)-5-methyl-5H-chromeno[4,3-c]pyridin-8-yl)pyrrolidin-2-one]"
0.01 to 0.1,≤ 0.001,≤ 0.001,"C[C@H]1Oc2cc(N3CCCC3=O)ccc2-c2cnc(Nc3cnc4c(c3)N3C(=O)CC[C@H]3CO4)cc21 [Example 192, (S)-2-(((R)-5-methyl-8-(2-oxopyrrolidin-1-yl)-5H-chromeno[4,3-c]pyridin-3-yl)amino)-6,6a,7,8-tetrahydro-9H-pyrido[2,3-b]pyrrolo[1,2-d][1,4]oxazin-9-one]"
0.001 to 0.01,≤ 0.001,≤ 0.001,"CS(=O)(=O)N1CCOc2ncc(Nc3cc4c(cn3)-c3ccc(N5CCCC5=O)cc3OC4)cc21 [Example 78, 1-(3-((1-(methylsulfonyl)-2,3-dihydro-1H-pyrido[2,3-b][1,4]oxazin-7-yl)amino)-5H-chromeno[4,3-c]pyridin-8-yl)pyrrolidin-2-one]"
